Assay results reported in patent US6410585B1, “Inhibitors of protein tyrosine phosphatase” (priority 1997, dated 2002).
Like-named read-outs stand apart in the source and are kept apart here.

Target: T1, rat PTP1 (Rattus norvegicus, UniProt P20417)
T1 construct: a C-terminal truncation of rat PTP1 (amino acid residues 1-322); GST (N, cleaved yes); made in house; host or cells: E. coli strain TG-1 (pGEX-2T)
T1 sequence (P20417 1-322): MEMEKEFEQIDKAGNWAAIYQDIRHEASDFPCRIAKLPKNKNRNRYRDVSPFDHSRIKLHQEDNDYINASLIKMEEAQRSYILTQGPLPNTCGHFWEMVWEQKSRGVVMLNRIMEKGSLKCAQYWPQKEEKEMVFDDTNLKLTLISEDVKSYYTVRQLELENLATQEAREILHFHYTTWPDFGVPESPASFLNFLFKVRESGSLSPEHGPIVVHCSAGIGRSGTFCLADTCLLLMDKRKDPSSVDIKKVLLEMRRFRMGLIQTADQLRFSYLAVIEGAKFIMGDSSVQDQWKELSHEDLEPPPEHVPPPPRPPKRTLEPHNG
Assay: PTP1 assay, pNPP hydrolysis (rate of change in A405)
Type: biochemical
Description: PTP1 Assays: A construct, which consisted of a C-terminal truncation of rat PTP1 (amino acid residues 1-322) (cloned from a rat brain library) with an N-terminal glutathione S-transferase (GST) tag and an adjacent thrombin cleavage site, was inserted into vector plasmid pGEX-2T and transformed into E. coli strain TG-1 under the control of a lac promoter (K. L. Guan and J. E. Dixon (1991) Eukaryotic proteins expressed in Escherichia coli: an improved thrombin cleavage and purification procedure of fusion proteins with glutathione S-transferase. Analyt. Biochem. 192: 262-267). The GST-fusion protein was purified on a glutathione agarose affinity column, the GST tag was cleaved with thrombin, and the active enzyme was recovered for use in an assay to identify PTP inhibitors.
PTP1 activity is measured using either p-nitrophenol phosphate (pNPP) or a triphosphopeptide (that matches residues 1142 through 1153 of the β-subunit and the insulin receptor) as substrate in a 96-well microtiter plate format. An assay pH of 7.2 is used for standard assays (measured 405=9800 at pH 7.2).
Standard assays are conducted at room temperature in a total volume of 0.2 ml that contains Hepes buffer (50 mM, pH 7.2), NaCl (50 mM), EDTA (1 mM), DTT (1 mM), bovine serum albumin (1 mg/ml), pNPP (1 mM) and PTP1 (35 ng/ml). Compounds (2 μl of 10 mM solutions) are pipetted into wells of microtiter plates followed by 198 μl of premixed reaction mix (with PTP1 and pNPP added immediately before use). The rate of change in A405 is recorded for 60 min. Two wells on each plate contain DMSO controls and two wells contain sodium orthovanadate (1 mM) which inhibits PTP1-catalyzed hydrolysis of pNPP completely. Data are expressed as percent inhibition relative to the average of the DMSO controls measured on the same microtiter plate.

[1] = Conc 1 uM, pNPP hydrolysis, Table 1, read-out: PTP1 Inhib % Inhib
[2] = Conc 10 uM, pNPP hydrolysis, Table 1, read-out: PTP1 Inhib % Inhib
[3] = Conc 100 uM, pNPP hydrolysis, Table 1, read-out: PTP1 Inhib % Inhib
[4] = Conc 1 uM, pNPP hydrolysis, Table 2, read-out: PTP1 Inhib PTP1N. % Inhib
[5] = Conc 10 uM, pNPP hydrolysis, Table 2, read-out: PTP1 Inhib PTP1N. % Inhib
[6] = Conc 100 uM, pNPP hydrolysis, Table 2, read-out: PTP1 Inhib PTP1N. % Inhib
[7] = inhibition of pNPP-hydrolysis, compound concentration 1 μM, read-out: % Inhibition
[8] = inhibition of pNPP-hydrolysis, compound concentration 10 μM, read-out: % Inhibition
[9] = inhibition of pNPP-hydrolysis, compound concentration 100 μM, read-out: % Inhibition

Compound	inhibition at 1 µM [1] [%]	inhibition at 10 µM [2] [%]	inhibition at 100 µM [3] [%]	inhibition at 1 µM [4] [%]	inhibition at 10 µM [5] [%]	inhibition at 100 µM [6] [%]	also measured
CCCCCNC(=O)C(Cc1ccc(OC(COO)COO)cc1)NC(=O)Nc1ccc(C(=O)O)cc1 (stereo not drawn)	8	34	81	–	–	–	–
CCCCCNC(=O)[C@H](Cc1ccc(CC(C(=O)O)C(=O)O)cc1)NC(=O)CCC(=O)O	0	3	34	–	–	–	–
CCCCCNC(=O)C(Cc1ccc(OC(COO)COO)cc1)NC(=O)Nc1cc(C(=O)O)cc(C(=O)O)c1 (stereo not drawn)	16	64	94	–	–	–	–
O=C(O)CCC(=O)NC(Cc1ccc(OC(COO)COO)cc1)C(=O)NCc1ccc(C(F)(F)F)cc1 (stereo not drawn)	4	15	66	–	–	–	–
CCCCCNC(=O)[C@H](Cc1ccc(OC(C(=O)O)C(=O)O)cc1)NC(=O)[C@H](CCC(=O)O)NC(=O)OC(C)(C)C	5	34	83	–	–	–	–
CCCCCNC(=O)[C@H](Cc1ccc(OC(C(=O)O)C(=O)O)cc1)NC(=O)[C@H](CCC(=O)O)NC(=O)CCC(=O)O	25	76	96	–	–	–	–
CCCCCNC(=O)C(Cc1ccc(OC(COO)COO)cc1)NC(=O)NC(CCC(=O)O)C(=O)O (stereo not drawn)	17	64	94	–	–	–	–
CCCCCNC(=O)[C@H](Cc1ccc(OC(C(=O)O)C(=O)O)cc1)NC(=O)CCc1ccc(CC(C(=O)O)C(=O)O)cc1	5	29	79	–	–	–	–
CCCCCNC(=O)C(Cc1ccc(OC(COO)COO)cc1)NC(=O)N(CC(=O)O)Cc1ccccc1 (stereo not drawn)	3	25	75	–	–	–	–
CCCC[C@H](NC(=O)[C@H](Cc1ccc(OC(C(=O)O)C(=O)O)cc1)NC(=O)CCC(=O)O)C(N)=O	16	63	93	–	–	–	–
O=C(O)CCC(=O)NC(Cc1ccc(OC(COO)COO)cc1)C(=O)NCCOc1ccccc1 (stereo not drawn)	1	13	57	–	–	–	–
CCCCCNC(=O)C(Cc1ccc(OC(COO)COO)cc1)NC(=O)C(Cc1ccc(OCc2ccccc2)cc1)NC(=O)CCC(=O)O (stereo not drawn)	–	–	–	30	80	98	–
O=C(O)CCC(=O)NC(Cc1ccc(C(=O)c2ccccc2)cc1)C(=O)NCCc1ccc(OC(COO)COO)cc1 (stereo not drawn)	–	–	–	1	13	60	–
CCCCCNC(=O)C(Cc1ccc(OC(COO)COO)cc1)NC(=O)C(Cc1ccc(C(=O)c2ccccc2)cc1)NC(=O)CCc1ccc(O)cc1 (stereo not drawn)	–	–	–	9	47	89	–
CCCCCNC(=O)C(Cc1ccc(OC(COO)COO)cc1)NC(=O)C(Cc1ccc(OCc2c(Cl)cccc2Cl)cc1)NC(=O)CCC(=O)O (stereo not drawn)	–	–	–	11	70	98	–
CCCCCNC(=O)C(Cc1ccc(OC(COO)COO)cc1)NC(=O)C(Cc1ccc(OCc2c(Cl)cccc2Cl)cc1)NC(=O)OC(C)(C)C (stereo not drawn)	–	–	–	3	12	85	–
CCCCCNC(=O)C(Cc1ccc(OC(COO)COO)cc1)NC(=O)C(Cc1ccc(OC(C)(C)C)cc1)NC(=O)CCC(=O)O (stereo not drawn)	–	–	–	37	83	97	–

Compound	inhibition at 1 µM [1] [%]	inhibition at 10 µM [2] [%]	inhibition at 100 µM [3] [%]	inhibition at 1 µM [4] [%]	inhibition at 10 µM [5] [%]	inhibition at 100 µM [6] [%]	also measured
CCCCCNC(=O)C(Cc1ccc(OC(COO)COO)cc1)NC(=O)C(Cc1ccc(OC(C)(C)C)cc1)NC(=O)OC(C)(C)C (stereo not drawn)	–	–	–	5	36	89	–
CCCCCNC(=O)C(Cc1ccc(OC(COO)COO)cc1)NC(=O)C(Cc1ccc(OC)cc1)NC(=O)OC(C)(C)C (stereo not drawn)	–	–	–	8	36	90	–
CCCCCNC(=O)C(Cc1ccc(OC(COO)COO)cc1)NC(=O)C(Cc1ccc(OC)cc1)NC(=O)CCC(=O)O (stereo not drawn)	–	–	–	32	83	98	–
CCCCCNC(=O)C(Cc1ccc(OC(COO)C(=O)O)cc1)NC(=O)NC(Cc1ccccc1)C(=O)O (stereo not drawn)	–	–	–	8	57	93	–
CCCCCNC(=O)C(Cc1ccc(OC(COO)COO)cc1)NC(=O)C(Cc1ccc(OCc2ccccc2)cc1)N(C)C(=O)OC(C)(C)C (stereo not drawn)	–	–	–	0	0	32	–
CCCCCNC(=O)C(Cc1ccc(OC(COO)COO)cc1)NC(=O)N(Cc1ccc(CC(=O)O)cc1)Cc1cccc(C(F)(F)F)c1 (stereo not drawn)	–	–	–	4	51	92	–
CCCCCNC(=O)C(Cc1ccc(OC(COO)COO)cc1)NC(=O)NCC(=O)NCC(=O)O (stereo not drawn)	–	–	–	12	56	93	–
CCCCCNC(=O)C(C)(Cc1ccc(OC(C(=O)O)C(=O)O)cc1)NC(=O)CCC(=O)O (stereo not drawn)	–	–	–	3	6	34	–
CCCCCNC(=O)C(Cc1ccc(OC(C(=O)O)C(=O)O)c(F)c1)NC(=O)CCC(=O)O (stereo not drawn)	–	–	–	4	29	78	–
CC(C)CC(CO)NC(=O)C(Cc1ccc(OC(COO)COO)cc1)NC(=O)CCC(=O)O (stereo not drawn)	–	–	–	3	15	57	–
CCCCCNC(=O)C(Cc1ccc(OC(COO)COO)cc1)NC(=O)[C@H](Cc1ccc(C(=O)c2ccccc2)cc1)NC(C)=O (stereo partly drawn)	–	–	–	9	42	87	–
CCCCC/C=C/[C@H](Cc1ccc(OC(C(=O)O)C(=O)O)cc1)NC(=O)CCC(=O)O	–	–	–	1	14	70	–
CC(C)(C)OC(=O)N[C@@H](Cc1ccccc1)C(=O)N[C@H](CO)Cc1ccc(OCC(=O)O)c(C(=O)O)c1 [Example 148, 5-[(2S)-2-({(2S)-2-[(tert-butoxycarbonyl)amino]-3-phenylpropanoyl}amino)-3-hydroxypropyl]-2-(carboxymethoxy)benzoic Acid]	–	–	–	–	–	–	inhibition at 1 µM [7]: 5%; inhibition at 10 µM [8]: 31%; inhibition at 100 µM [9]: 80%
CCCCCNC(=O)[C@H](Cc1ccc(OCC(=O)O)c(C(=O)O)c1)NC(=O)c1cnc(Cl)c(Cl)c1 [Example 154-2, 2-(carboxymethoxy)-5-[(2S)-2-{[(5,6-dichloro-3-pyridinyl)carbonyl]amino}-3-oxo-3-(pentylamino)propyl]benzoic acid]	–	–	–	–	–	–	inhibition at 1 µM [7]: 23%; inhibition at 10 µM [8]: 72%; inhibition at 100 µM [9]: 95%
O=C(O)COc1ccc(C[C@H](NC(=O)c2ccccc2)C(=O)NCCCCc2ccccc2)cc1C(=O)O [Example 154-8, 5-{(2S)-2-(benzoylamino)-3-oxo-3-[(4-phenylbutyl)amino]propyl}-2-(carboxymethoxy)benzoic acid]	–	–	–	–	–	–	inhibition at 1 µM [7]: 30%; inhibition at 10 µM [8]: 81%; inhibition at 100 µM [9]: 97%
O=C(O)COc1ccc(C[C@H](NC(=O)c2ccc(Cl)cc2)C(=O)NCCCCc2ccccc2)cc1C(=O)O [Example 154-9, 2-(carboxymethoxy)-5-{(2S)-2-[(4-chlorobenzoyl)amino]-3-oxo-3-[(4-phenylbutyl)amino]propyl}benzoic acid]	–	–	–	–	–	–	inhibition at 1 µM [7]: 37%; inhibition at 10 µM [8]: 85%; inhibition at 100 µM [9]: 97%
O=C(O)COc1ccc(C[C@H](NC(=O)c2cccnc2)C(=O)NCCCCc2ccccc2)cc1C(=O)O [Example 154-11, 2-(carboxymethoxy)-5-{(2S)-3-oxo-3-[(4-phenylbutyl)amino]-2-[(3-pyridinylcarbonyl)amino]propyl}benzoic acid]	–	–	–	–	–	–	inhibition at 1 µM [7]: 22%; inhibition at 10 µM [8]: 73%; inhibition at 100 µM [9]: 95%
